This is an account of results in patent EP1377579B1 (Aventis Pharmaceuticals Inc., priority 2000, dated 2002).

One test addresses cdk4/cyclin D1 (Homo sapiens, UniProt P11802). Kind of test: Cyclin-dependent kinase assay, cdk4/cyclin D1. The note with it: cyclin D1/cdk4; GST-pRb substrate, 10 µM ATP. The format is biochemical.
Another test concerns MDA-MB-435. Nature of the test: In vitro proliferation assay (MTT), MDA-MB-435. Format: cell-based, human. The note with it: Homo sapiens, MDA-MB-435, MTT assay; value (SD, n) where given; read-out: MB-435 Breast (IC50 µM). Put shortly: (§1)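 MTT viability, 3 d compound treatment; seeding 1000–2500 cells/well, overnight attachment; formazan in DMSO, A570; IC50 fitted from raw absorbance.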

The subject of the next test is NCI-H460. Nature of the test: In vitro proliferation assay (MTT), NCI-H460. Format: cell-based. Particulars: Homo sapiens, NCI-H460; MTT assay; value (SD, n) where given; read-out: H-460 Lung (IC50 µM). Put shortly: (§2)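 Plate 1000–2500 cells/well, RPMI 1640 + 5 % FBS, 3 mM L-glutamine; attach overnight → compound treatment 3 days → MTT, 37 C, 2–4 hr → remove medium, solubilize in DMSO → absorbance 570 nm → IC50.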

For another test, the system named is HL-60. Nature of the test: In vitro proliferation assay (MTT), HL-60. The format is cell-based. Particulars: Homo sapiens, HL-60; MTT assay; value (SD, n) where given; read-out: HL-60 Leuk. (IC50 µM). The method in brief: as §2
Another test deals with Jurkat. Nature of the test: In vitro proliferation assay (MTT), Jurkat. Format: cell-based. The note with it: Homo sapiens, MTT assay, value (SD, n) where given, read-out: Jurkat Leuk. (IC50 µM). Put shortly:
as §2

A further test concerns PC-3. Nature of the test: In vitro proliferation assay (MTT), PC-3. The format is cell-based, human. Particulars: Homo sapiens, PC-3, MTT assay; value (SD, n) where given; read-out: PC-3 Prostate (IC50 µM). The method in brief:
as §1

For a further test, the system named is Colo-205. Nature of the test: In vitro proliferation assay (MTT), Colo-205. The format is cell-based. The note with it: Homo sapiens, COLO 205; MTT assay; value (SD, n) where given; read-out: Colo-205 Colon (IC50 µM). The method in brief:
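Colo-205 cells were seeded at 1000–2500 cells/well and allowed to attach overnight, then exposed to compound for 3 days. Viable cells were measured by MTT reduction (2–4 h, 37 °C), with DMSO-solubilised dye read at 570 nm. IC50 was derived from concentration–response data.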

In the next test the target is cdk1/cyclin B (Homo sapiens, UniProt P06493). Kind of test: Cyclin-dependent kinase assay, cdk1/cyclin B. The note with it: CDK1 IC50, nM, Histone H1, 10 µM ATP.
The next test has as its target cdk2/cyclin E (Homo sapiens, UniProt P24941). Kind of test: Cyclin-dependent kinase assay, cdk2/cyclin E. The note with it: CDK2 IC50, nM, GST-pRb substrate, 10 µM ATP.

SMILES strings stand for the structures. Where a name gives a salt, the structure may show the parent alone.

cdk4/cyclin D1, sequence (P11802 whole entry): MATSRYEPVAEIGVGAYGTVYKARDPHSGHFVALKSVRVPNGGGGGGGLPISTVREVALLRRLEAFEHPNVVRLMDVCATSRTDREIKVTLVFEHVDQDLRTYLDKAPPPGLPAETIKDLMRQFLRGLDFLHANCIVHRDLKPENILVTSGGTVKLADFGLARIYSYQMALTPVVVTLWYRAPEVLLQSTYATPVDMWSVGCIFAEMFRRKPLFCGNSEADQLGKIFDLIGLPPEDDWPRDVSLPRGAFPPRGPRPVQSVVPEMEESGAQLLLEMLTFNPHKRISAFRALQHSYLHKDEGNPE
cdk4/cyclin D1, sequence (P24385 whole entry partner): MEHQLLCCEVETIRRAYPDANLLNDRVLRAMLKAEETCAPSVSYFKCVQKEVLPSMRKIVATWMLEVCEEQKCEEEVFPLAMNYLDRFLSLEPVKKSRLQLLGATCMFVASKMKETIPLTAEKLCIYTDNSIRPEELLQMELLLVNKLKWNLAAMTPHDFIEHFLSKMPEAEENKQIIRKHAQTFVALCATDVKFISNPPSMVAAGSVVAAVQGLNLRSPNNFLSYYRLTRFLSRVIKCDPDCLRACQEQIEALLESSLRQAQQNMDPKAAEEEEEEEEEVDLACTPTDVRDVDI
cdk1/cyclin B, sequence (P06493 whole entry): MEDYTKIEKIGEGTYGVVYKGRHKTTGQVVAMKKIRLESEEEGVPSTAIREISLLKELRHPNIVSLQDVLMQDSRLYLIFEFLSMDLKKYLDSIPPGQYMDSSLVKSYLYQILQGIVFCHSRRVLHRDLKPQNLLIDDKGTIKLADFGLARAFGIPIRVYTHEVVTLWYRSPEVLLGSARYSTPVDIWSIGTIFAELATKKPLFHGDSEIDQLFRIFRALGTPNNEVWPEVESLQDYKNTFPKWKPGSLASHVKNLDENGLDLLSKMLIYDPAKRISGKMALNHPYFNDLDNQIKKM
cdk1/cyclin B, sequence (P14635 whole entry partner): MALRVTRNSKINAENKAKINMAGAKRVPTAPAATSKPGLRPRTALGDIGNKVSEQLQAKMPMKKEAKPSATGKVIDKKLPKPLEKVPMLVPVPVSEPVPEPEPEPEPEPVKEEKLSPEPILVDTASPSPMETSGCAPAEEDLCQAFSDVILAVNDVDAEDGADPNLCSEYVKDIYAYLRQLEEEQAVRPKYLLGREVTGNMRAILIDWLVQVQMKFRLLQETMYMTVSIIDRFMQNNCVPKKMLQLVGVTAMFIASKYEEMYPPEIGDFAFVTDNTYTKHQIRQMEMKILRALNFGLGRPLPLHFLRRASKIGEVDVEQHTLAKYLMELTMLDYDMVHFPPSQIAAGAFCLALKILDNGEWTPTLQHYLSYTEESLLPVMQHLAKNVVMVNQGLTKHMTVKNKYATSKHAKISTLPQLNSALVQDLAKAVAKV

Turning to `N[C@H]1CC[C@H](Nc2nc(NC3CCN(C(=O)Nc4cc(Cl)cc(Cl)c4)CC3)c3ncn(C4CCCC4)c3n2)CC1` [compound 182, trans-4-[2-(4-Amino-cyclohexylamino)-9-cyclopentyl-9H-purin-6-ylamino]-piperidine-1-carboxylic acid (3,5-dichloro-phenyl)-amide dihydrochloride], the IC50 is 305 nM against cdk4/cyclin D1; 0.15 µM in the test on MDA-MB-435; 0.12 µM in the test on NCI-H460; 0.02 µM in the test on HL-60; 0.17 µM with Jurkat; 0.1 µM in the test on PC-3. For the same molecule, the IC50 was under 0.02 µM in the test with Colo-205, 32 nM at cdk1/cyclin B and 174 nM on cdk2/cyclin E.

`N[C@H]1CC[C@H](Nc2nc(NC3CCN(S(=O)(=O)c4cccc5ccccc45)CC3)c3ncn(C4CCCC4)c3n2)CC1` [compound 123, trans-N^2-(4-Amino-cyclohexyl)-9-cyclopentyl-N^6-[1-(naphthalene-1-sulfonyl)-piperidin-4-yl]-9H-purine-2,6-diamine dihydrochloride]: the IC50 against cdk4/cyclin D1 turned out to be 49 nM; in the test on MDA-MB-435, 0.26 µM; in the test on NCI-H460, 0.29 µM; in the test with HL-60 it was 0.15 µM; in the test on Jurkat, 0.22 µM; with PC-3 it was 0.2 µM. Moreover, the IC50 in the test on Colo-205 worked out at 0.07 µM; at cdk1/cyclin B it was 62 nM; on cdk2/cyclin E, 54 nM.

On to `N[C@H]1CC[C@H](Nc2nc(NC3CCN(C(=O)Nc4ccc(Cl)c(Cl)c4)CC3)c3ncn(C4CCCC4)c3n2)CC1` [compound 209, trans-4-[2-(4-Amino-cyclohexylamino)-9-cyclopentyl-9H-purin-6-ylamino]-piperidine-1-carboxylic acid (3,4-dichloro-phenyl)-amide dihydrochloride], for which the IC50 on cdk4/cyclin D1 was 50 nM; with MDA-MB-435, 0.17 µM; in the test with NCI-H460, 0.29 µM; in the test on HL-60, under 0.02 µM; with Jurkat, 0.13 µM; in the test with PC-3, 0.26 µM. For the same molecule, the IC50 was found to be 0.05 µM in the test on Colo-205, 13 nM on cdk1/cyclin B and 34 nM at cdk2/cyclin E.

In the case of `N[C@H]1CC[C@H](Nc2nc(NC3CCN(C(=O)Nc4cc(F)ccc4F)CC3)c3ncn(C4CCCC4)c3n2)CC1` [compound 180, trans-4-[2-(4-Amino-cyclohexylamino)-9-cyclopentyl-9H-purin-6-ylamino]-piperidine-1-carboxylic acid (2,5-difluoro-phenyl)-amide dihydrochloride], the IC50 is 431 nM against cdk4/cyclin D1; 0.1 µM in the test on MDA-MB-435; 0.12 µM in the test on NCI-H460; under 0.02 µM in the test with HL-60; 0.2 µM in the test on Jurkat; 0.09 µM in the test on PC-3. The 50% inhibitory concentration (IC50) was 0.04 µM with Colo-205, 12 nM at cdk1/cyclin B and 44 nM against cdk2/cyclin E.

For `CCOc1ccc(NC(=O)N2CCC(Nc3nc(N[C@H]4CC[C@H](N)CC4)nc4c3ncn4C3CCCC3)CC2)cc1` [compound 191, trans-4-[2-(4-Amino-cyclohexylamino)-9-cyclopentyl-9H-purin-6-ylamino]-piperidine-1-carboxylic acid (4-ethoxy-phenyl)-amide dihydrochloride], the IC50 against cdk4/cyclin D1 was 297 nM; with MDA-MB-435 it was 0.25 µM; in the test with NCI-H460, 0.41 µM; in the test on HL-60, under 0.02 µM; in the test with Jurkat it was 0.36 µM; in the test on PC-3 it was 0.24 µM. The IC50 turned out to be 0.07 µM in the test on Colo-205, 23 nM against cdk1/cyclin B and 36 nM on cdk2/cyclin E.

As for `N[C@H]1CC[C@H](Nc2nc(NC3CCN(C(=O)Nc4cc(C(F)(F)F)ccc4Cl)CC3)c3ncn(C4CCCC4)c3n2)CC1` [compound 177, trans-4-[2-(4-Amino-cyclohexylamino)-9-cyclopentyl-9H-purin-6-ylamino]-piperidine-1-carboxylic acid (2-chloro-5-trifluoromethyl-phenyl)-amide dihydrochloride], the IC50 on cdk4/cyclin D1 came out at 432 nM; with MDA-MB-435, 0.17 µM; with NCI-H460 it was 0.14 µM; in the test with HL-60, 0.03 µM; in the test on Jurkat it was 0.21 µM; in the test on PC-3, 0.15 µM. The IC50 with Colo-205 came out at 0.12 µM; against cdk1/cyclin B, 7 nM; against cdk2/cyclin E, 60 nM.

As for `N[C@H]1CC[C@H](Nc2nc(NC3CCN(C(=O)Nc4ccc(OC(F)(F)F)cc4)CC3)c3ncn(C4CCCC4)c3n2)CC1` [compound 175, trans-4-[2-(4-Amino-cyclohexylamino)-9-cyclopentyl-9H-purin-6-ylamino]-piperidine-1-carboxylic acid (4-trifluoromethoxy-phenyl)-amide dihydrochloride], the IC50 at cdk4/cyclin D1 was determined as 682 nM; in the test on MDA-MB-435, 0.12 µM; in the test with NCI-H460, 0.23 µM; with HL-60 it was 0.04 µM; with Jurkat, 0.16 µM; with PC-3 it was 0.2 µM. The IC50 with Colo-205 was 0.05 µM; at cdk1/cyclin B, 12 nM; at cdk2/cyclin E, 114 nM.

As for `N[C@H]1CC[C@H](Nc2nc(NC3CCN(C(=O)Nc4ccc(F)cc4)CC3)c3ncn(C4CCCC4)c3n2)CC1` [compound 147, trans-4-[2-(4-Amino-cyclohexylamino)-9-cyclopentyl-9H-purin-6-ylamino]-piperidine-1-carboxylic acid (4-fluoro-phenyl)-amide dihydrochloride], the IC50 against cdk4/cyclin D1 was 258 nM; in the test with MDA-MB-435, 0.33 µM; with NCI-H460 it was 0.56 µM; in the test with HL-60 it was 0.03 µM; in the test on Jurkat, 0.51 µM; in the test with PC-3, 0.36 µM. The figures for the IC50 in the test with Colo-205, at cdk1/cyclin B and against cdk2/cyclin E were under 0.02 µM, 38 nM and 46 nM, respectively.

Regarding `CCOc1ccccc1NC(=O)N1CCC(Nc2nc(N[C@H]3CC[C@H](N)CC3)nc3c2ncn3C2CCCC2)CC1` [compound 171, trans-4-[2-(4-Amino-cyclohexylamino)-9-cyclopentyl-9H-purin-6-ylamino]-piperidine-1-carboxylic acid (2-ethoxy-phenyl)-amide dihydrochloride], the half-maximal inhibitory concentration (IC50) at cdk4/cyclin D1 worked out at 963 nM; with MDA-MB-435 it was 0.25 µM; in the test with NCI-H460, 0.23 µM; with HL-60 it was 0.05 µM; in the test with Jurkat it was 0.31 µM; in the test on PC-3, 0.23 µM. The IC50 is 0.14 µM in the test with Colo-205, 51 nM on cdk1/cyclin B and 89 nM against cdk2/cyclin E.

As for `N[C@H]1CC[C@H](Nc2nc(NC3CCN(C(=O)Nc4ccc(Cl)cc4C(F)(F)F)CC3)c3ncn(C4CCCC4)c3n2)CC1` [compound 178, trans-4-[2-(4-Amino-cyclohexylamino)-9-cyclopentyl-9H-purin-6-ylamino]-piperidine-1-carboxylic acid (4-chloro-2-trifluoromethyl-phenyl)-amide dihydrochloride], the IC50 is 879 nM at cdk4/cyclin D1; 0.14 µM in the test on MDA-MB-435; 0.23 µM with NCI-H460; under 0.02 µM in the test on HL-60; 0.28 µM in the test on Jurkat; 0.16 µM in the test on PC-3. The results for the IC50 with Colo-205, against cdk1/cyclin B and on cdk2/cyclin E were 0.09 µM, 49 nM and 100 nM, respectively.

On to `CCCCOC(=O)N1CCC(Nc2nc(N[C@H]3CC[C@H](N)CC3)nc3c2ncn3C2CCCC2)CC1` [compound 92, trans-4-[2-(4-Amino-cyclohexylamino)-9-cyclopentyl-9H-purin-6-ylamino]-piperidine-1-carboxylic acid butyl ester dihydrochloride], for which the 50% inhibitory concentration (IC50) against cdk4/cyclin D1 is 2100 nM; with MDA-MB-435, 0.33 µM; in the test with NCI-H460 it was 0.2 µM; with HL-60 it was 0.07 µM; in the test on Jurkat, 0.25 µM; in the test with PC-3, 0.2 µM. For the same molecule, the results for the IC50 in the test with Colo-205, against cdk1/cyclin B and at cdk2/cyclin E were 0.2 µM, 45 nM and 18 nM, respectively.

On to `Cc1ccc(NC(=O)N2CCC(Nc3nc(N[C@H]4CC[C@H](N)CC4)nc4c3ncn4C3CCCC3)CC2)cc1` [compound 183, trans-4-[2-(4-Amino-cyclohexylamino)-9-cyclopentyl-9H-purin-6-ylamino]-piperidine-1-carboxylic acid (4-methyl-phenyl)-amide dihydrochloride], for which the IC50 on cdk4/cyclin D1 is 338 nM; with MDA-MB-435, 0.11 µM; in the test with NCI-H460 it was 0.2 µM; in the test with HL-60, under 0.02 µM; in the test with Jurkat it was 0.19 µM; with PC-3 it was 0.17 µM. Also, the IC50 in the test with Colo-205 came to 0.05 µM; on cdk1/cyclin B, 17 nM; against cdk2/cyclin E, 64 nM.
